Several values for one entry are separate records, joined by “and”; a condition that tells them apart may be missing. Equal values may be shown once.
Tested on: Diamond Back Moth (DBM; Plutella xylostella)
Experiment: Control of diamond back moth and inhibition of egg deposition, cage test with sugar pads
Assay type: in vivo
Conditions: 4% in 10% sucrose
Experimental: On day one, six cages (24″ cube) were set up with five virgin DBM females and five virgin DBM males, one cabbage seedling, and one sugar pad (10% sucrose) in each cage. The sugar solution in three cages also contained 4% sodium tetraborate (4 g+96 ml, w:v water). The virgin adult DBM were obtained by isolating colony pupae individually in vials two days prior. The adults emerged one day prior to day one and on day one. They were provided a 10% sugar solution with or without sodium tetraborate, as soon as they emerged, by placing the vials with cloth bottoms on cotton pads.
The cages were placed in environmental rooms where the temperature was 25-26° C. and the day length was 14 hours.
Sugar pads were a single layer of rolled cotton approximately 8 cm square. Each pad was soaked in the appropriate solution, placed in the bottom of a petri dish (95×15 mm), and the excess water was pressed out. Each pad held about 30 ml of solution.
The cabbage seedlings were in Descn. No. 12 plastic pots. The surface of the soil was covered with a thin layer of Plaster of Paris.
On each of days two, three, four, five, and six, the sugar pads and plants were changed (once) between 1:00 p.m. and 5:00 p.m.

[1] = Day 7, cages 1-3, one cage per cell
[2] = Total of Days 2-7, cages 1-3, one cage per cell
[3] = Total of Days 2-7 and of 3 cages
[4] = relative to sugar control, Days 2-7

Compound: O=BOB(O)OB(O)OB=O [Sodium tetraborate, sodium tetraborate]
- Percent Hatch, Average (Average of the 3 cages, Days 2-7): 66.4%
- Number of Eggs, Average (Average per cage over Days 2-7): 354.7
- Number of Larvae, Average (Average per cage over Days 2-7): 235.3
- Number of Dead Females (Day 2, Total of 3 cages): 0
- Number of Dead Males (Day 2, Total of 3 cages): 0
- Number of Eggs (Day 2, Total of 3 cages): 202
- Number of Larvae (Day 2, Total of 3 cages): 99
- Percent Hatch (Day 2, Total): 44.8%
- Number of Dead Females (Day 2, cages 1-3, five females per cage): 0
- Number of Dead Males (Day 2, cages 1-3, five males per cage): 0
- Percent Hatch (Day 2, cages 1-3, one cage per cell): 40.9% and 58.2% and 35.4%
- Number of Dead Females (Day 3, Total of 3 cages): 1
- Number of Dead Males (Day 3, Total of 3 cages): 0
- Number of Eggs (Day 3, Total of 3 cages): 499
- Number of Larvae (Day 3, Total of 3 cages): 388
- Percent Hatch (Day 3, Total): 79.9%
- Number of Dead Males (Day 3, cages 1-3, five males per cage): 0
- Percent Hatch (Day 3, cages 1-3, one cage per cell): 73.7% and 74.2% and 91.7%
- Number of Dead Females (Day 4, Total of 3 cages): 1
- Number of Dead Males (Day 4, Total of 3 cages): 0
- Number of Eggs (Day 4, Total of 3 cages): 185
- Number of Larvae (Day 4, Total of 3 cages): 113
- Percent Hatch (Day 4, Total): 57.0%
- Number of Dead Males (Day 4, cages 1-3, five males per cage): 0
- Percent Hatch (Day 4, cages 1-3, one cage per cell): 47.5% and 52.2% and 71.3%
- Number of Dead Females (Day 5, Total of 3 cages): 1
- Number of Dead Males (Day 5, Total of 3 cages): 2
- Number of Eggs (Day 5, Total of 3 cages): 119
- Number of Larvae (Day 5, Total of 3 cages): 70
- Percent Hatch (Day 5, Total): 54.3%
- Number of Dead Females (Day 6, Total of 3 cages): 3
- Number of Dead Males (Day 6, Total of 3 cages): 4
- Number of Eggs (Day 6, Total of 3 cages): 58
- Number of Larvae (Day 6, Total of 3 cages): 36
- Percent Hatch (Day 6, Total): 63.3%
- Number of Dead Females (Day 6, cages 1-3, five females per cage): 1
- Number of Dead Females (Day 7, Total of 3 cages): 6
- Number of Dead Males (Day 7, Total of 3 cages): 4
- Number of Eggs (Day 7, Total of 3 cages): 1
- Number of Larvae (Day 7, Total of 3 cages): 0
- Number of Live Females (Day 7, Total of 3 cages): 2
- Number of Live Males (Day 7, Total of 3 cages): 2
- Percent Hatch (Day 7, Total): 0.0%
- Number of Dead Males (Day 7, cages 1-3, five males per cage): 2 and 1
- Number of Larvae [1]: 0
- Percent Hatch [1]: 0.0%
- Percent Hatch, Total (Days 2-7 together, cages 1-3, one cage per cell): 60.9% and 65.5% and 72.9%
- Number of Eggs, Total [2]: 419 and 261 and 384
- Number of Larvae, Total [2]: 255 and 171 and 280
- Number of Eggs, Total [3]: 1064
- Number of Larvae, Total [3]: 706
- Number of Eggs, % of sugar [4]: 57.1%
- Number of Larvae, % of sugar [4]: 64.2%
